14 compounds from patent US4017622A, “Piperazine derivatives” (Dainippon Pharmaceutical Co., Ltd., priority 1972, dated 1977) can be followed below.

The ED50 is the dose at which the effect has come halfway, by size or by number of responders. Read a high ED50 as weaker potency. As a reminder, the LD50 is the dose at which mortality reaches 50%. A higher LD50 goes with a less toxic substance.

One data set relates to Escherichia coli K-12. The experiment in a line: In vitro antibacterial activity (MIC, serial dilution), Escherichia coli. The following applies: nutrient broth, pH 7.0; 37° C for 48 hours.
Data set [1] concerns Staphylococcus aureus Terajima. The experiment in a line: In vitro antibacterial activity (MIC, serial dilution), Staphylococcus aureus. The following applies: nutrient broth, pH 7.0; 37° C for 48 hours.
Procedure: (§6) The minimum inhibitory concentration (MIC) was
(§7) determined by the well known serial dilution method.
(§8) Medium: nutrient broth, pH 7.0 (5 ml/tube)
(§9) Inoculum: 1 drop of 1 : 10^5 dilution of an
overnight broth culture per tube
Data set [2] has as its system Pseudomonas aeruginosa Tsuchijima. The experiment in a line: In vitro antibacterial activity (MIC, serial dilution), Pseudomonas aeruginosa. Conditions: nutrient broth, pH 7.0; 37° C for 48 hours.
Procedure: as §6, §7, §8, §9
overnight broth culture per tube
Data set [3] relates to Pseudomonas aeruginosa No. 12. The experiment in a line: In vivo efficacy against systemic infection with Pseudomonas aeruginosa in mice. The following applies: NO.12, 168 h, male ddY-S mice, ip, twice, about 5 minutes and 6 hours after infection, observation 7 days. As to the method: (§1) In the Tables II and III, the ED50 and LD50 values were calculated in accordance with the Bcherns-Kaerber method [Arch. Exp. Path, Pharm., 162, 480 (1931)].
(§2) 2) In vivo efficacy against systemic infection with
(§3) Pseudomonas aeruginosa and Salmonella typhimurium
*Experimental conditions:
Organism: Pseudomonas aeruginosa No. 12
Mice: male mice (ddY-S) weighing 20 g approximately.
intraperitoneal infection with 50 to 100
LD50 (about 5 × 10^3 cells/mouse) of a
bacterial suspension in 4% gastric mucin.
twice, about 5 minutes and 6 hours after
(§4) Drug: an alkaline solution (pH 8 - 9) for intraperitoneal
(§5) ip: intraperitoneal administration.

The test system of data set [4] is Salmonella typhimurium S-9. In words: In vivo efficacy against systemic infection with Salmonella typhimurium in mice. Conditions: Salmonella enterica, 336 h, male ddY-S mice, twice a day for 4 days, observation 14 days. On the procedure:
as §1, §2, §3
**Experimental conditions:
Organism: Salmonella typhimurium S-9
Ice: male mice (ddY-S) weighing 20 g approximately.
Intraperitoneal infection with 50 to 100
LD50 (about 10^5 cells/mouse) of a bacterial
suspension in a nutrient broth.
twice a day for 4 days from the day of
as §4
administration and suspension in 0.2% carboxymethyl
cellulose for oral administration.
as §5
po: oral administration.

A short description of a further data set: Acute toxicity in mice. The following applies: mouse, in vivo. On the procedure: as §1
3) Acute toxicity in mice
Experimental conditions:
Mice: male mice (ddY-S) weighing 20 g approximately
Drug: alkaline solution (pH 8 - 9) for intravenous
administration and suspension in 0.2%
carboxymethyl cellulose for oral administration.
iv: intravenous administration.
ip: oral administration.

Procedure for Escherichia coli K-12: as §6, §7, §8, §9
overnight broth culture per tube

For the compound `CN1CCN(c2ccc3c(=O)c(C(=O)O)cn(Cc4ccccc4)c3c2)CC1` [compound 1147], the “minimum inhibitory concentration (MIC), Escherichia coli K-12” value with Escherichia coli K-12 is 1. Besides, the “minimum inhibitory concentration (MIC), Staphylococcus aureus Terajima” value in data set [1] is listed as more than 100. Moreover, the “minimum inhibitory concentration (MIC), Pseudomonas aeruginosa Tsuchijima” value in data set [2] worked out at 10.

Consider `CCn1cc(C(=O)O)c(=O)c2cnc(N3CCN(C)CC3)cc21` [compound 1317], for which the 50% effective dose (ED50) was determined as 50 mg/kg in data set [3], 14.9 mg/kg in data set [4] (ip) and 23.9 mg/kg in data set [4] (po). The same compound displayed an LD50 at 168 h in “Acute toxicity in mice” (iv) of more than 500 mg/kg. The “minimum inhibitory concentration (MIC), Escherichia coli K-12” value in the data set on Escherichia coli K-12 is given as 3. In addition, in data set [1], the “minimum inhibitory concentration (MIC), Staphylococcus aureus Terajima” value is 30. Further, in data set [2], the “minimum inhibitory concentration (MIC), Pseudomonas aeruginosa Tsuchijima” value was 100.

For the compound `O=C(O)c1cn(Cc2ccccc2)c2cc(N3CCNCC3)ccc2c1=O` [compound 1162], in the data set on Escherichia coli K-12, the “minimum inhibitory concentration (MIC), Escherichia coli K-12” value stood at 1. In data set [1], the “minimum inhibitory concentration (MIC), Staphylococcus aureus Terajima” value worked out at 30. For the same compound, the “minimum inhibitory concentration (MIC), Pseudomonas aeruginosa Tsuchijima” value in data set [2] was 10.

Consider `CCn1cc(C(=O)O)c(=O)c2ccc(N(C)C)nc21` [compound 1249], for which the ED50 in data set [3] was more than 100 mg/kg. For the same compound, the “minimum inhibitory concentration (MIC), Escherichia coli K-12” value in the data set on Escherichia coli K-12 was found to be 1. The “minimum inhibitory concentration (MIC), Staphylococcus aureus Terajima” value in data set [1] worked out at 100. The “minimum inhibitory concentration (MIC), Pseudomonas aeruginosa Tsuchijima” value in data set [2] is more than 100.

Regarding `CCn1cc(C(=O)O)c(=O)c2ccc(N3CCN(C)CC3)cc21` [compound 1090], the ED50 in data set [3] was found to be 91.4 mg/kg; in data set [4] (ip), 9.6 mg/kg; in data set [4] (po), 13.6 mg/kg. For the same compound, the median lethal dose (LD50) at 168 h in the data set “Acute toxicity in mice” (iv) is more than 500 mg/kg; in “Acute toxicity in mice” (po), 2000 mg/kg. Besides, in the data set on Escherichia coli K-12, the “minimum inhibitory concentration (MIC), Escherichia coli K-12” value is 1. The “minimum inhibitory concentration (MIC), Staphylococcus aureus Terajima” value in data set [1] is recorded as 30. The “minimum inhibitory concentration (MIC), Pseudomonas aeruginosa Tsuchijima” value in data set [2] is 30.

As for `CCn1cc(C(=O)O)c(=O)c2ccc(N3CCNCC3)nc21` [compound 1214], the 50% effective dose (ED50) in data set [3] is 9.2 mg/kg; in data set [4] (ip), 18.7 mg/kg; in data set [4] (po), approximately 43.8 mg/kg. Besides, the LD50 at 168 h in “Acute toxicity in mice” (iv) is more than 500 mg/kg. The “minimum inhibitory concentration (MIC), Escherichia coli K-12” value in the data set with Escherichia coli K-12 is given as 3. Further, the “minimum inhibitory concentration (MIC), Staphylococcus aureus Terajima” value in data set [1] was 30. Also, the “minimum inhibitory concentration (MIC), Pseudomonas aeruginosa Tsuchijima” value in data set [2] is recorded as 10.

`C=Cn1cc(C(=O)O)c(=O)c2ccc(N3CCN(CC)CC3)cc21` [compound 1557]: the figures for the 50% effective dose (ED50) in data set [3], in data set [4] (ip) and in data set [4] (po) were 19.3 mg/kg, 5.1 mg/kg and 11.5 mg/kg, respectively. In addition, the LD50 at 168 h in the data set “Acute toxicity in mice” (iv) is 354 mg/kg; in “Acute toxicity in mice” (po), more than 2000 mg/kg. Moreover, in the data set with Escherichia coli K-12, the “minimum inhibitory concentration (MIC), Escherichia coli K-12” value stood at 1. Also, in data set [1], the “minimum inhibitory concentration (MIC), Staphylococcus aureus Terajima” value was determined as 30. Also, the “minimum inhibitory concentration (MIC), Pseudomonas aeruginosa Tsuchijima” value in data set [2] is given as 10.

In the case of `CCn1cc(C(=O)O)c(=O)c2ccc(N3CCNCC3)cc21` [compound 1091], the 50% effective dose (ED50) was 6.3 mg/kg in data set [3], 15.5 mg/kg in data set [4] (ip) and approximately 109 mg/kg in data set [4] (po). Also, the LD50 at 168 h in “Acute toxicity in mice” (iv) is more than 500 mg/kg; in “Acute toxicity in mice” (po), 2000 mg/kg. The “minimum inhibitory concentration (MIC), Escherichia coli K-12” value with Escherichia coli K-12 is on record as 1. Also, the “minimum inhibitory concentration (MIC), Staphylococcus aureus Terajima” value in data set [1] turned out to be 30. The “minimum inhibitory concentration (MIC), Pseudomonas aeruginosa Tsuchijima” value in data set [2] came to 10.

Consider `CCn1cc(C(=O)O)c(=O)c2ccc(N3CCN(C)CC3)nc21` [compound 1225], for which the “minimum inhibitory concentration (MIC), Escherichia coli K-12” value with Escherichia coli K-12 is listed as 1. In addition, the “minimum inhibitory concentration (MIC), Staphylococcus aureus Terajima” value in data set [1] amounted to 100. Further, the “minimum inhibitory concentration (MIC), Pseudomonas aeruginosa Tsuchijima” value in data set [2] stood at 30.

For the compound `C=Cn1cc(C(=O)O)c(=O)c2ccc(N3CCN(C)CC3)cc21` [compound 1493], the 50% effective dose (ED50) in data set [3] is 17.8 mg/kg; in data set [4] (ip), 3.4 mg/kg; in data set [4] (po), 8.8 mg/kg. The values for the LD50 at 168 h in “Acute toxicity in mice” (iv) and in the data set “Acute toxicity in mice” (po) were more than 500 mg/kg and more than 2000 mg/kg, respectively. In addition, the “minimum inhibitory concentration (MIC), Escherichia coli K-12” value with Escherichia coli K-12 stood at 1. Further, the “minimum inhibitory concentration (MIC), Staphylococcus aureus Terajima” value in data set [1] is listed as 100. Also, the “minimum inhibitory concentration (MIC), Pseudomonas aeruginosa Tsuchijima” value in data set [2] was 3.

Consider `C=Cn1cc(C(=O)O)c(=O)c2ccc(N3CCN(C)CC3)nc21` [compound 1276], for which the “minimum inhibitory concentration (MIC), Escherichia coli K-12” value in the data set with Escherichia coli K-12 worked out at 1. Moreover, in data set [1], the “minimum inhibitory concentration (MIC), Staphylococcus aureus Terajima” value is more than 100. Besides, in data set [2], the “minimum inhibitory concentration (MIC), Pseudomonas aeruginosa Tsuchijima” value is 10.

The compound `CCn1cc(C(=O)O)c(=O)c2cnc(N3CCCC3)nc21` [PA, 5,8-dihydro-8-ethyl-2-pyrrolidino-5-oxopyrido [2,3-d]pyrimidine-6-carboxylic acid, reference compound] registered an ED50 in data set [3] of more than 100 mg/kg. For the same compound, the LD50 at 168 h in the data set “Acute toxicity in mice” (male ddY-S mice, iv, observation 7 days) was 268 mg/kg; in the data set “Acute toxicity in mice” (male ddY-S mice, po, observation 7 days) it was more than 4000 mg/kg. Besides, in the data set on Escherichia coli K-12, the “minimum inhibitory concentration (MIC), Escherichia coli K-12” value turned out to be 1. Besides, the “minimum inhibitory concentration (MIC), Staphylococcus aureus Terajima” value in data set [1] is reported as 10. In addition, the “minimum inhibitory concentration (MIC), Pseudomonas aeruginosa Tsuchijima” value in data set [2] is on record as 100.

For the compound `C=Cn1cc(C(=O)O)c(=O)c2ccc(N3CCNCC3)nc21` [compound 1424], the ED50 stood at 3.9 mg/kg in data set [3], 19.3 mg/kg in data set [4] (ip) and 22.9 mg/kg in data set [4] (po). The LD50 at 168 h in “Acute toxicity in mice” (iv) was 354 mg/kg; in “Acute toxicity in mice” (po), more than 2000 mg/kg. Moreover, the “minimum inhibitory concentration (MIC), Escherichia coli K-12” value with Escherichia coli K-12 was 1. Moreover, the “minimum inhibitory concentration (MIC), Staphylococcus aureus Terajima” value in data set [1] came out at 100. The “minimum inhibitory concentration (MIC), Pseudomonas aeruginosa Tsuchijima” value in data set [2] stood at 10.

Turning to `CCn1cc(C(=O)O)c(=O)c2cnc(N3CCNCC3)cc21` [compound 1367], the 50% effective dose (ED50) was approximately 12.5 mg/kg in data set [3], 54.5 mg/kg in data set [4] (ip) and 70.7 mg/kg in data set [4] (po). In addition, the “minimum inhibitory concentration (MIC), Escherichia coli K-12” value in the data set on Escherichia coli K-12 was found to be 3. The “minimum inhibitory concentration (MIC), Staphylococcus aureus Terajima” value in data set [1] is listed as more than 100. For the same compound, the “minimum inhibitory concentration (MIC), Pseudomonas aeruginosa Tsuchijima” value in data set [2] amounted to 30.
